Measured values taken from patent US11807644B2 (PMV Pharmaceuticals, Inc., priority 2020, dated 2023).

Each compound was assayed against T1, recombinant His-tag Y220C p53 DBD protein (Homo sapiens, UniProt P04637, Y220C) (assay: In vitro DNA binding activity assay (TR-FRET): binding of His-tag Y220C p53 DBD to biotin-labeled consensus DNA). Conditions: SC150 = concentration to increase DNA binding by […], His-tag Y220C p53 DBD, biotin-labeled consensus DNA.
T1 construct: recombinant His-tag Y220C p53 DBD protein (amino acids #˜94-312)
Format: biochemical

Y220C SC150 (μM) | Structure (SMILES)
* (* = 0 μM ≤ SC150 < 0.1 μM) | CN1CC[C@@H](Nc2cccc3c2cc(-c2noc(CNC(=O)c4ccncc4)n2)n3CC(F)(F)F)[C@@H](F)C1 [Compound 200B, N-{[3-(4-{[(3S,4R)-3-fluoro-1-methylpiperidin-4-yl]amino}-1-(2,2,2-trifluoroethyl)-1H-indol-2-yl)-1,2,4-oxadiazol-5-yl]methyl}pyridine-4-carboxamide]
* (* = 0 μM ≤ SC150 < 0.1 μM) | CN1CC[C@@H](Nc2cccc3c2cc(-c2noc(CNC(=O)c4ccccn4)n2)n3CC(F)(F)F)[C@@H](F)C1 [Compound 201B, N-{[3-(4-{[(3S,4R)-3-fluoro-1-methylpiperidin-4-yl]amino}-1-(2,2,2-trifluoroethyl)-1H-indol-2-yl)-1,2,4-oxadiazol-5-yl]methyl}pyridine-2-carboxamide]
* (* = 0 μM ≤ SC150 < 0.1 μM) | CN1CC[C@@H](Nc2cccc3c2cc(-c2noc(CNC(=O)c4cccnc4)n2)n3CC(F)(F)F)[C@@H](F)C1 [Compound 202B, N-{[3-(4-{[(3S,4R)-3-fluoro-1-methylpiperidin-4-yl]amino}-1-(2,2,2-trifluoroethyl)-1H-indol-2-yl)-1,2,4-oxadiazol-5-yl]methyl}pyridine-3-carboxamide]
* (* = 0 μM ≤ SC150 < 0.1 μM) | F[C@H]1CNCC[C@H]1Nc1cccc2c1cc(-c1noc(CNc3cn[nH]c3)n1)n2CC(F)(F)F [Compound 203B, N-[(3S,4R)-3-fluoropiperidin-4-yl]-2-(5-{[(1H-pyrazol-4-yl)amino]methyl}-1,2,4-oxadiazol-3-yl)-1-(2,2,2-trifluoroethyl)-1H-indol-4-amine]
* (* = 0 μM ≤ SC150 < 0.1 μM) | CN1CC[C@@H](Nc2cccc3c2cc(-c2noc(CNC(=O)c4ccn(CCF)c4)n2)n3CC(F)(F)F)[C@@H](F)C1 [Compound 205B, N-{[3-(4-{[(3S,4R)-3-fluoro-1-methylpiperidin-4-yl]amino}-1-(2,2,2-trifluoroethyl)-1H-indol-2-yl)-1,2,4-oxadiazol-5-yl]methyl}-1-(2-fluoroethyl)-1H-pyrrole-3-carboxamide]
* (* = 0 μM ≤ SC150 < 0.1 μM) | CN1CC[C@@H](Nc2cccc3c2cc(-c2noc(CNC(=O)[C@H]4C[C@H]4c4ccccc4)n2)n3CC(F)(F)F)[C@@H](F)C1 [Compound 206B, (1S,2R)-N-{[3-(4-{[(3S,4R)-3-fluoro-1-methylpiperidin-4-yl]amino}-1-(2,2,2-trifluoroethyl)-1H-indol-2-yl)-1,2,4-oxadiazol-5-yl]methyl}-2-phenylcyclopropane-1-carboxamide]
** (** = 0.1 μM ≤ SC150 < 0.5 μM) | CN1CC[C@@H](Nc2cccc3c2cc(-c2noc(CNC(=O)[C@@H]4C[C@@H]4c4ccccc4)n2)n3CC(F)(F)F)[C@@H](F)C1 [Compound 207B, (1R,2S)-N-{[3-(4-{[(3S,4R)-3-fluoro-1-methylpiperidin-4-yl]amino}-1-(2,2,2-trifluoroethyl)-1H-indol-2-yl)-1,2,4-oxadiazol-5-yl]methyl}-2-phenylcyclopropane-1-carboxamide]
* (* = 0 μM ≤ SC150 < 0.1 μM) | Cc1cc(C(=O)NCc2nc(-c3cc4c(N[C@@H]5CCN(C)C[C@@H]5F)cccc4n3CC(F)(F)F)no2)cs1 [Compound 208B, N-{[3-(4-{[(3S,4R)-3-fluoro-1-methylpiperidin-4-yl]amino}-1-(2,2,2-trifluoroethyl)-1H-indol-2-yl)-1,2,4-oxadiazol-5-yl]methyl}-5-methylthiophene-3-carboxamide]
* (* = 0 μM ≤ SC150 < 0.1 μM) | Cc1cscc1C(=O)NCc1nc(-c2cc3c(N[C@@H]4CCN(C)C[C@@H]4F)cccc3n2CC(F)(F)F)no1 [Compound 209B, N-{[3-(4-{[(3S,4R)-3-fluoro-1-methylpiperidin-4-yl]amino}-1-(2,2,2-trifluoroethyl)-1H-indol-2-yl)-1,2,4-oxadiazol-5-yl]methyl}-4-methylthiophene-3-carboxamide]
* (* = 0 μM ≤ SC150 < 0.1 μM) | CN1CC[C@@H](Nc2cccc3c2cc(-c2noc(CNC(=O)[C@@H]4C[C@H]4c4ccc(F)cc4)n2)n3CC(F)(F)F)[C@@H](F)C1 [Compound 210B, (1R,2R)-N-{[3-(4-{[(3S,4R)-3-fluoro-1-methylpiperidin-4-yl]amino}-1-(2,2,2-trifluoroethyl)-1H-indol-2-yl)-1,2,4-oxadiazol-5-yl]methyl}-2-(4-fluorophenyl)cyclopropane-1-carboxamide]
* (* = 0 μM ≤ SC150 < 0.1 μM) | Cc1sccc1C(=O)NCc1nc(-c2cc3c(N[C@@H]4CCN(C)C[C@@H]4F)cccc3n2CC(F)(F)F)no1 [Compound 211B, N-{[3-(4-{[(3S,4R)-3-fluoro-1-methylpiperidin-4-yl]amino}-1-(2,2,2-trifluoroethyl)-1H-indol-2-yl)-1,2,4-oxadiazol-5-yl]methyl}-2-methylthiophene-3-carboxamide]
* (* = 0 μM ≤ SC150 < 0.1 μM) | CN1CC[C@@H](Nc2cccc3c2cc(-c2noc(CNC(=O)[C@H]4C[C@H](C)C4)n2)n3CC(F)(F)F)[C@@H](F)C1 [Compound 212B, (1s,3r)-N-{[3-(4-{[(3S,4R)-3-fluoro-1-methylpiperidin-4-yl]amino}-1-(2,2,2-trifluoroethyl)-1H-indol-2-yl)-1,2,4-oxadiazol-5-yl]methyl}-3-methylcyclobutane-1-carboxamide]
* (* = 0 μM ≤ SC150 < 0.1 μM) | CN1CC[C@@H](Nc2cccc3c2cc(-c2noc(CNC(=O)c4csc(Cl)c4)n2)n3CC(F)(F)F)[C@@H](F)C1 [Compound 213B, 5-chloro-N-{[3-(4-{[(3S,4R)-3-fluoro-1-methylpiperidin-4-yl]amino}-1-(2,2,2-trifluoroethyl)-1H-indol-2-yl)-1,2,4-oxadiazol-5-yl]methyl}thiophene-3-carboxamide]
* (* = 0 μM ≤ SC150 < 0.1 μM) | F[C@H]1CNCC[C@H]1Nc1cccc2c1cc(-c1noc(CNc3ccn[nH]3)n1)n2CC(F)(F)F [Compound 214B, N-[(3S,4R)-3-fluoropiperidin-4-yl]-2-(5-{[(1H-pyrazol-5-yl)amino]methyl}-1,2,4-oxadiazol-3-yl)-1-(2,2,2-trifluoroethyl)-1H-indol-4-amine]
* (* = 0 μM ≤ SC150 < 0.1 μM) | CN1CC[C@@H](Nc2cccc3c2cc(-c2noc(CNC(=O)c4ccsc4Cl)n2)n3CC(F)(F)F)[C@@H](F)C1 [Compound 215B, 2-chloro-N-{[3-(4-{[(3S,4R)-3-fluoro-1-methylpiperidin-4-yl]amino}-1-(2,2,2-trifluoroethyl)-1H-indol-2-yl)-1,2,4-oxadiazol-5-yl]methyl}thiophene-3-carboxamide]
* (* = 0 μM ≤ SC150 < 0.1 μM) | CN1CC[C@@H](Nc2cccc3c2cc(-c2noc(CNC(=O)c4cc5ccccn5n4)n2)n3CC(F)(F)F)[C@@H](F)C1 [Compound 216B, N-{[3-(4-{[(3S,4R)-3-fluoro-1-methylpiperidin-4-yl]amino}-1-(2,2,2-trifluoroethyl)-1H-indol-2-yl)-1,2,4-oxadiazol-5-yl]methyl}pyrazolo[1,5-a]pyridine-2-carboxamide]
* (* = 0 μM ≤ SC150 < 0.1 μM) | CN1CC[C@@H](Nc2cccc3c2cc(-c2noc(CNC(=O)c4cn5ccccc5n4)n2)n3CC(F)(F)F)[C@@H](F)C1 [Compound 217B, N-{[3-(4-{[(3S,4R)-3-fluoro-1-methylpiperidin-4-yl]amino}-1-(2,2,2-trifluoroethyl)-1H-indol-2-yl)-1,2,4-oxadiazol-5-yl]methyl}imidazo[1,2-a]pyridine-2-carboxamide]
* (* = 0 μM ≤ SC150 < 0.1 μM) | CN1CC[C@@H](Nc2cccc3c2cc(-c2noc(CNC(=O)c4ccn(C5CC5)c4)n2)n3CC(F)(F)F)[C@@H](F)C1 [Compound 218B, 1-cyclopropyl-N-{[3-(4-{[(3S,4R)-3-fluoro-1-methylpiperidin-4-yl]amino}-1-(2,2,2-trifluoroethyl)-1H-indol-2-yl)-1,2,4-oxadiazol-5-yl]methyl}-1H-pyrrole-3-carboxamide]
* (* = 0 μM ≤ SC150 < 0.1 μM) | Cc1cc(C(=O)NCc2nc(-c3cc4c(N[C@@H]5CCN(C)C[C@@H]5F)cccc4n3CC(F)(F)F)no2)cn1C [Compound 219B, N-{[3-(4-{[(3S,4R)-3-fluoro-1-methylpiperidin-4-yl]amino}-1-(2,2,2-trifluoroethyl)-1H-indol-2-yl)-1,2,4-oxadiazol-5-yl]methyl}-1,5-dimethyl-1H-pyrrole-3-carboxamide]
* (* = 0 μM ≤ SC150 < 0.1 μM) | CN1CC[C@@H](Nc2cccc3c2cc(-c2noc(CNC(=O)c4ccc(N(C)C)cc4)n2)n3CC(F)(F)F)[C@@H](F)C1 [Compound 220B, 4-(dimethylamino)-N-{[3-(4-{[(3S,4R)-3-fluoro-1-methylpiperidin-4-yl]amino}-1-(2,2,2-trifluoroethyl)-1H-indol-2-yl)-1,2,4-oxadiazol-5-yl]methyl}benzamide]
** (** = 0.1 μM ≤ SC150 < 0.5 μM) | CN1CC[C@@H](Nc2cccc3c2cc(-c2noc(CNS(=O)(=O)c4ccccc4)n2)n3CC(F)(F)F)[C@@H](F)C1 [Compound 221B, N-{[3-(4-{[(3S,4R)-3-fluoro-1-methylpiperidin-4-yl]amino}-1-(2,2,2-trifluoroethyl)-1H-indol-2-yl)-1,2,4-oxadiazol-5-yl]methyl}benzenesulfonamide]
* (* = 0 μM ≤ SC150 < 0.1 μM) | CN1CC[C@@H](Nc2cccc3c2cc(-c2noc(CNC(=O)C4CCC4)n2)n3CC(F)(F)F)[C@@H](F)C1 [Compound 222B, N-{[3-(4-{[(3S,4R)-3-fluoro-1-methylpiperidin-4-yl]amino}-1-(2,2,2-trifluoroethyl)-1H-indol-2-yl)-1,2,4-oxadiazol-5-yl]methyl}cyclobutanecarboxamide]
* (* = 0 μM ≤ SC150 < 0.1 μM) | CN1CC[C@@H](Nc2cccc3c2cc(-c2noc(CNC(=O)[C@H]4C[C@@H](C)C4)n2)n3CC(F)(F)F)[C@@H](F)C1 [Compound 223B, (1r,3s)-N-{[3-(4-{[(3S,4R)-3-fluoro-1-methylpiperidin-4-yl]amino}-1-(2,2,2-trifluoroethyl)-1H-indol-2-yl)-1,2,4-oxadiazol-5-yl]methyl}-3-methylcyclobutane-1-carboxamide]
